Among the data in patent publication US20100240656A1, “COMPOUNDS AS HSP90 INHIBITORS” (ORYZON GENOMICS, S.A., priority 2007, published 2010) are EC50 values, retold here.

Experiment [1] relates to K-562. As to the kind of experiment: Cell proliferation by MTT method, K-562. The settings on record: Homo sapiens. The class given is cell-based. The procedure:
(§1) The objective of this study was to determine the influence of the compounds on cell proliferation of K-562, A-549, MCF-7, HeLa, WI-38 by MTT method. The compounds were tested over a three-fold dilution series in triplicate for the determination of EC50 of their influence on cell proliferation.
(§2) The assay is based on the cleavage of the yellow tetrazolium salt MTT into purple formazan by metabolically active cells. The MTT formazan crystals are insoluble in aqueous solution, but may be solubilized by adding the 10% SDS, then incubating the plates overnight in a humidified atmosphere (e.g., 37° C., 5% CO2). The solubilized formazan product can be photometrically quantitated using Tecan reader. An increase in the number of living cells results in an increase of total metabolic activity, which leads to a stronger color formation.
(§3) EC50 values are defined as the compound concentration at which 50% of reaction product is formed.
(§4) Test compounds were dissolved to 10 mM in 100% DMSO.
(§5) In the day of the experiment cells were seeded into all wells of 96-well plates. Serial dilution of compounds was performed in a separate 96-well plate at 20 times final assay concentration in cell culture medium (DMEM with 10% Fetal Bovine Serum). 5 μl of compound was transferred to 96-well plate containing seeded cells in cell culture medium (final total volume=100 μl). Cells were cultured in the presence of the respective test substances in the 96-well plate at 37° C. in a humidified 5% CO2 incubator for a certain period of time (24, 72 or 120 hours). Then 5 μL of thiazolyl blue tetrazolium bromide (MTT) 5 mg/mL was added to the cells and the cells were reincubated 4 hours in a humidified 5% CO2 incubator. Then 10% SDS was added into the each well. The reaction product was quantified by measuring the absorbance at 568 nm using a scanning multiwell spectrophotometer Tecan. The developed color and thereby the absorbance values directly correlate to the number of the living cells.
(§6) The data were analyzed using Microsoft Excel 2000, GraphPad Prism 3.03. […]
For orientation: Formazan colour is commonly taken as a measure of viable cells.

Experiment [2] relates to HeLa. As to the kind of experiment: Cell proliferation by MTT method, HeLa. Type of experiment: cell-based. The settings on record: Homo sapiens. As for the experimental part:
as §1, §2, §3, §4, §5, §6

Experiment [3] has as its system WI-38. As to the kind of experiment: Cell proliferation by MTT method, WI-38. The class given is cell-based. The settings on record: Homo sapiens. The procedure:
as §1, §2, §3, §4, §5, §6

The test system of experiment [4] is MCF-7. As to the kind of experiment: Cell growth inhibition by AlamarBlue method, MCF-7. The class given is cell-based, human. The settings on record: Homo sapiens, MCF7; MCF-7, 72 hours; read-out: Cell growth inhibition values (EC50) obtained with AlamarBlue method. As for the experimental part: (§7) The human colon cancer cell line HCT-116 and the human breast cell lines MCF-7 and SKBr3 were from the American Type Culture Collection (ATCC; CCL-247, HTB-22 and HTB-30, respectively).
(§8) The HCT-116 and SKBr3 cell lines were maintained in DMEM GlutaMAX (Invitrogen) supplemented with 10% fetal calf serum and the MCF-7 cell line was maintained in RPMI1640 GlutaMAX (Invitrogen) containing 1 mM sodium pyruvate and 10% fetal calf serum. Cells were grown in a humidified incubator at 37° C. in 5% CO2
(§9) Cells were plated in 96-well plates (Costar, 3596) at a density of 6000 cells/well in 50 μL medium 24 h before addition of the compounds. Compounds were then added in 8 concentrations, each in triplicate (dilution series of 1 to 3). To do so, a compound-dilution plate at 200× the screening concentrations was prepared in DMSO 100% (Sigma, 154938). Then, 1.7 μL of the 200× diluted compounds were transferred to a new plate and 170 μL of media were added and mixed with the pipette (plate at 2×). Columns 11 and 12 of this plate (controls) were filled with 1% DMSO in cell media (i.e. 1.7 μL DMSO and 170 μL cell media). Finally, 50 μL of this intermediate plate at 2× were transferred to the plate containing the seeded cells and slowly shaken manually. Cells were grown as described above. AlamarBlue viability assay (Biosource, Invitrogen, DAL1100) was performed 72 hours later following manufacturer's protocol. In brief, AlamarBlue diluted in media was added to cells to have a 5% solution (a 2× solution was prepared in media and 100 μL of this solution were transferred to each well, i.e. final volume of 200 μL). Cells were incubated at 37° C., 3 hours and at room temperature for an additional 30 min. Cells with no compound and, cells with no compound and lysed with triton X-100 (30 μL/well added 10 min before treatment with AlamarBlue) were used as controls (6 replicates of each). Fluorescence was monitored at 530 nm excitation and 590 nm emission wavelengths. Results were quantified using ELx800 Universal Microplate Reader (Bio-Tek Instruments, Inc.). EC50 were calculated as the dose of compound required to inhibit cell growth by 50%.

In experiment [5] the test system is SKBr3. As to the kind of experiment: Cell growth inhibition by AlamarBlue method, SKBr3. Type of experiment: cell-based. The settings on record: Homo sapiens, SK-BR-3; SKBr3, 72 hours; read-out: Cell growth inhibition values (EC50) obtained with AlamarBlue method. As for the experimental part: as §7, §8, §9

A word on the EC50: it is the concentration that produces a half-maximal response. For the molecule `NCCCCCn1c(Sc2cc3c(cc2I)OCO3)nc(C(N)=O)c1N` [Example 6, 5-amino-1-(5-amino-pentyl)-2-(6-iodo-benzo[1,3]dioxol-5-ylsulfanyl)-1H-imidazole-4-carboxamide], the EC50 in experiment [1] (K562, 24 h, K 562, incubation 1 day) is over 100 µM; in experiment [1] (K562, 72 h, K 562, incubation 3 days) it was 12.2 µM; in experiment [1] (K562, 120 h, K 562, incubation 5 days) it was 9.1 µM; in experiment [2] (24 h, incubation 1 day), over 100 µM; in experiment [2] (72 h, incubation 3 days), 14.6 µM; in experiment [2] (120 h, incubation 5 days), 8.6 µM. The EC50 is over 100 µM in experiment [3] (24 h, WI-38, incubation 1 day); 27.7 µM in experiment [3] (72 h, WI-38, incubation 3 days); 19.5 µM in experiment [3] (120 h, WI-38, incubation 5 days); 15.9 µM in experiment [4].
For the molecule `CCCCn1c(Sc2cc3c(cc2I)OCO3)nc(C(N)=O)c1N` [Example 10, 5-amino-1-butyl-2-(6-iodo-benzo[1,3]dioxol-5-ylsulfanyl)-1H-imidazole-4-carboxamide], the concentration giving a half-maximal response (EC50) in experiment [5] was in the range of 24 to 30 µM.
